Assay results reported in paper PMC9072872, “Structure-based design of nucleoside-derived analogues as sulfotransferase inhibitors” (RSC Advances, 2019).

What was measured:
[1] = biological target: PKA (Homo sapiens, UniProt P17612); assay: PKA kinase counter-screen; type: biochemical; settings: compound 400 μM, PKA 1 nM, ATP 5 μM, 30 min, 20 °C
Text: (§1) Fig. 5 Immunological evaluation of TPST1 inhibition towards substrate and a Ser/Thr protein kinase counter-screen. (A) Immunoblots evaluating TPST1 sulfotransferase activity in the presence of a panel of PAP- and PAPS-mimetic compounds. […] After termination of the reaction using SDS-PAGE sample buffer, tyrosine sulfation was visualised by immunoblotting using a monoclonal sulfotyrosine antibody (top panel), with equal GST-CC4-tide and TPST1 loading confirmed using an antibody to detect 6xHis tagged proteins (bottom panel). (B) Enzymatic inhibition of PKA catalytic activity by a panel of PAP- and PAPS-mimetic compounds. PKA kinase (1 nM) was incubated with ATP (5 μM) in the presence of the appropriate nucleoside analogue (400 μM) for 30 min at 20 °C. PKA activity was calculated in real-time using fluorescently-labelled substrate peptide (2 μM) and normalised to DMSO (4% v/v) or buffer control.[77] Data in B is mean and SD of 3 individual experiments. Staurosporine is included at 40 μM as a generic inhibitor of kinase activity.
Finally, a simple counter-screen was set up employing PKA. This was carried out in order to assess relative specificity for ST inhibition, and using the generic kinase inhibitor staurosporine A as a positive control and PAP and CoA as negative controls, neither of which bind nor inhibit PKA. Compounds were screened at 400 μM in the presence 1 nM PKA.

[2] = biological target: T1, TPST1 (Homo sapiens, UniProt O60507); assay: Immunoblot of GST-CC4tide tyrosine sulfation by TPST1 (anti-sulfotyrosine antibody); type: biochemical; settings: compound 400 μM, GST-CC4-tide 1 μg, TPST1 0.2 μg, PAPS 5 μM, 15 min
T1 construct: Human TPST1 (residues Lys43-Leu360) enzyme was purified as a recombinant protein; made in house
T1 sequence (O60507 43-360): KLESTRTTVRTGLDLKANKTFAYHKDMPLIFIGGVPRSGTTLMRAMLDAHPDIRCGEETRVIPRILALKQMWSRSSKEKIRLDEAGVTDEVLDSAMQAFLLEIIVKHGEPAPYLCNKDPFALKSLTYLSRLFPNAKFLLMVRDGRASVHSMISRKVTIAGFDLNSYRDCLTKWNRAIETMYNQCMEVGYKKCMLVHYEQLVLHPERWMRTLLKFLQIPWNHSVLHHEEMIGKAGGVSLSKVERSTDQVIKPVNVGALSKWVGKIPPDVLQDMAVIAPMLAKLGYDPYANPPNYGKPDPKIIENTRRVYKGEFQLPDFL
Procedure: In order to further assess TPST1 inhibition by 2′-deoxy-PAP and compounds 1–14 using a complementary assay, immunoblotting of a TPST1 protein substrate (GST-CC4tide) was implemented with a monoclonal antibody that specifically recognises sulfotyrosine, using PAP as positive control (Fig. 5A). Compounds were screened at 400 μM in the assay. In common with the […] enzyme assay using a synthetic peptide, a broad range of inhibitory activities was observed.
as §1, with “activity. […]” for “activity.”
All standard laboratory biochemicals, were purchased from Sigma, and were of the highest analytical quality.
5'-phosphosulfate, lithium salt hydrate, PAP (adenosine 3',5'-diphosphate, disodium salt), CoA (coenzymeA, sodium salt), ATP (adenosine 5’-triphosphate, disodium salt hydrate) were all purchased from Sigma and stored at -80 °C to minimise degradation.
Recombinant Protein Production and SDS-PAGE
Human TPST1 (residues Lys43-Leu360) enzyme was purified as a recombinant protein containing an N-terminal 6xHis tag as previously described. […]
pMAL-c2x plasmid encoding an N-terminal Maltose Binding Protein (MBP) affinity tag.6 Glutathione-S-transferase (GST) tagged CC4-tide ([…]) was cloned into pOPINJ (OPPF-UK) and […]
affinity purified from BL21 (DE3) pLysS E. coli using Glutathione-Sepharose 4B (GE Healthcare). 5 For SDS-PAGE, proteins were denatured in Laemmli sample buffer, heated at 95 °C for 5 min and then analysed by SDS-PAGE with 10% (v/v) polyacrylamide gels. Gels were stained and de-stained using a standard Coomassie Brilliant Blue protocol. To evaluate protein sulfation by immunoblotting, standard western blotting procedures were followed using monoclonal anti-sulfotyrosine ant ibody clone o-1C-A2 (Millipore) generated using a phage display procedure and sulfotyrosine selection peptide antigens7 in the presence of appropriate positive and negative controls, and modifications visua lised using ECL […]
Data was normalized […]
with respect to these control assays, with sulfate incorporation into the substr ate limited to ~ 20% to prevent depletion of PAPS and to ensure assay linearity. K m and IC50 values were determined by non-linear regression analysis with GraphPad Prism software. […]

Structure (SMILES) | inhibitory activity towards PKA [1] | suppression of tyrosine sulfation (immunoblot) [2]
Nc1ncnc2c1ncn2[C@H]1C[C@H](OP(=O)(O)O)[C@@H](COP(=O)(O)O)O1 [2′-deoxy-PAP] | no activity | complete suppression
Nc1ncnc2c1ncn2[C@H]1C[C@H](O)[C@@H](Cn2cc(P(=O)(O)O)nn2)O1 [Compound 11] |  | inactive
Nc1ncnc2c1ncn2[C@H]1C[C@H](OP(=O)(O)O)[C@@H](Cn2cc(P(=O)(O)O)nn2)O1 [Compound 12] |  | partial suppression
Nc1ncnc2c1ncn2[C@H]1C[C@H](O)[C@@H](Cn2cc(P(=O)(O)OCc3ccccc3)nn2)O1 [Compound 13] |  | partial suppression
